# Patent US10781236B2, “Bacteriocin composition and method” (priority 2015, dated 2020)
# Read-outs that look alike come from different tables or passages of the source. Where a SMILES comes first, the peptide text is derived from it.
# Key:
# L. lactis IL1403 = type: cell-based, Lactococcus lactis
# Experimental: The bacteriocin activity was assayed using a microtitre plate assay (Holo et al., 1991, supra). The plates were incubated at 30° C. for 8 h and the growth was measured spectrophotometrically at 600 nm (A600) with 15 min intervals using SPECTROstarNano (BMG LABTECH, Germany). The MIC was defined as the minimal bacteriocin concentration that inhibited the growth of the indicator strain by at least 50% (50% of the turbidity of the control culture without bacteriocin) in 200 μl culture. MIC is equal to one bacteriocin unit (BU).
# All the peptides in the experiments were synthesized by Pepmic Co., LTD, China with 90-99% purity except for CerHA, CerHB and CerVC (85% purity). Aureocin A70F is almost identical to bacteriocin AureocinA70, both being made up of four peptides (peptide A, B, C and D) but in peptide D of Aureocin A70F leucine 29 is replaced with phenylalanine (EWU40578.1). Synthesized peptides were solubilized to a concentration of 0.1 to 10 mg/ml in 0.1% (vol/vol) trifluoroacetic acid and stored at −20° C. until use.
# The three identified peptides termed GarKosA, GarKosB and GarKosC were chemically synthesized and tested for antimicrobial activity. The antimicrobial activity of the individual peptides was assessed against L. lactis IL1403 (Table 6).
# [1] = Tryptophan-to-alanine GarA variants, antibacterial activity; type: cell-based; settings: in combination with the other peptides of Garvicin KS
# Experimental: The three tryptophan residues in GarA were replaced one by one with alanine (Table 9). Antibacterial activity was tested when used in combination with the other peptides of Garvicin KS.
Compound,"MIC, single peptide (L. lactis IL1403; IL1403, 8 h) [µM]",also measured
CC[C@H](C)[C@H](NC(=O)[C@H](CCCNC(=N)N)NC(=O)[C@@H](NC(=O)CNC(=O)[C@H](C)NC(=O)[C@H](CCC(=O)O)NC(=O)[C@H](Cc1c[nH]c2ccccc12)NC(=O)CNC(=O)[C@H](CC(C)C)NC(=O)[C@H](Cc1c[nH]c2ccccc12)NC(=O)[C@H](CO)NC(=O)[C@H](C)NC(=O)[C@H](C)NC(=O)[C@@H](NC(=O)CNC(=O)CNC(=O)[C@@H](NC(=O)[C@@H](NC(=O)[C@H](CCCCN)NC(=O)[C@H](CC(C)C)NC(=O)CNC(=O)CNC(=O)[C@H](CCCCN)NC(=O)[C@@H](NC(=O)[C@@H](NC(=O)[C@H](C)NC(=O)CNC(=O)[C@@H](N)CCSC)C(C)C)C(C)C)[C@@H](C)CC)[C@@H](C)CC)[C@@H](C)O)[C@@H](C)O)C(=O)N[C@@H](Cc1c[nH]c2ccccc12)C(=O)N[C@@H](CCCCN)C(=O)O [CerV C] (H-MGAVVKGGLKIIGGTAASWLGWEAGTRIWK-OH; N-terminus and C-terminus assumed),>6,
MGAIIKAGAKIVGKGVLGGGASWLGANVGEKIWK (Altered Sequence of GarA from Lactococcus garvieae with W26A Mutation) [GarA-26A],,antibacterial activity in words [1]: no antibacterial activity
CC[C@H](C)[C@H](NC(=O)[C@H](C)NC(=O)CNC(=O)[C@@H](N)CCSC)C(=O)N[C@H](C(=O)N[C@@H](CCCCN)C(=O)N[C@@H](C)C(=O)NCC(=O)N[C@@H](C)C(=O)N[C@@H](CCCCN)C(=O)N[C@H](C(=O)N[C@H](C(=O)NCC(=O)N[C@@H](CCCCN)C(=O)NCC(=O)N[C@@H](C)C(=O)N[C@@H](CC(C)C)C(=O)N[C@H](C(=O)NCC(=O)NCC(=O)NCC(=O)N[C@H](C(=O)N[C@@H](Cc1c[nH]c2ccccc12)C(=O)N[C@@H](CC(C)C)C(=O)N[C@@H](C)C(=O)N[C@@H](CCC(=O)O)C(=O)N[C@@H](CCCCN)C(=O)N[C@@H](CC(C)C)C(=O)N[C@@H](Cc1ccccc1)C(=O)NCC(=O)NCC(=O)N[C@@H](CCCCN)C(=O)O)C(C)C)[C@@H](C)O)C(C)C)[C@@H](C)CC)[C@@H](C)CC [Kos C] (H-MGAIIKAGAKIVGKGALTGGGVWLAEKLFGGK-OH; N-terminus and C-terminus assumed),,"MIC, single peptide (L. lactis IL1403; L. lactis IL1403, synthetic single peptide, >=50% growth inhibition): 6 µM"
CC[C@H](C)[C@H](NC(=O)[C@H](CCCCN)NC(=O)[C@H](CCCCN)NC(=O)[C@H](CC(C)C)NC(=O)CNC(=O)CNC(=O)[C@H](Cc1ccc(O)cc1)NC(=O)[C@@H](NC(=O)[C@H](C)NC(=O)CNC(=O)CNC(=O)[C@H](C)NC(=O)[C@@H](NC(=O)CNC(=O)CNC(=O)[C@H](C)NC(=O)[C@H](Cc1ccccc1)NC(=O)[C@H](C)NC(=O)[C@H](CCCCN)NC(=O)CNC(=O)[C@H](CC(C)C)NC(=O)[C@H](CCSC)NC(=O)[C@H](CCCCN)NC(=O)[C@@H](NC(=O)[C@H](C)NC(=O)[C@H](C)NC(=O)CNC(=O)[C@@H](N)CCSC)C(C)C)C(C)C)[C@@H](C)O)C(=O)N[C@@H](Cc1ccccc1)C(=O)NCC(=O)O [CerV B] (H-MGAAVKMLGKAFAGGVAGGATYGGLKKIFG-OH; N-terminus and C-terminus assumed),>6,
